Data as given in patent US11787785B2 (NOVARTIS AG, priority 2021, dated 2023).

Target: T1, WIZ protein (HiBit-WIZ fusion protein) (Homo sapiens, UniProt O95785+Q96SW2)
T1 construct: expressed in transfected cells
Experiment: Quantification of WIZ protein levels in HiBit tag fusion protein assay (WIZ HiBit assay in 293T cells)
Type: cell-based
Set-up: remaining activity / Dmax: dose or concentration left out as unconfirmed
Conditions: for Dmax at 25 µM / remaining activity at 25 µM / Dmax / remaining activity: HEK-293T; for Dmax at 25 µM: 100 − Amax; for Dmax at 25 µM / remaining activity at 25 µM: 293T cells; for Dmax at 25 µM / Dmax: read-out: % degradation of WIZ (100 − Amax); for remaining activity at 25 µM: DMSO-normalized, curve-fitted percentage of WIZ-HiBit remaining at 25 uM; for remaining activity at 25 µM / remaining activity: read-out: WIZ Amax; for DC50: WIZ HiBit assay in 293T cells, 10-point, 5-fold dose response, highest concentration 25 μM, about 18 hours, read-out: WIZ AC50
Method in brief: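 Luminescence after LgBit complementation quantified remaining HiBit-WIZ in lysates of single-copy stable 293T lines. Cells dosed ~18 h at 37 °C with 10-point, 5-fold dilutions (highest 25 μM); DMSO set to 100%, fitted curve gave % remaining at 25 μM (Amax).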

T1 sequence (O95785 whole entry, the tested form may be a part): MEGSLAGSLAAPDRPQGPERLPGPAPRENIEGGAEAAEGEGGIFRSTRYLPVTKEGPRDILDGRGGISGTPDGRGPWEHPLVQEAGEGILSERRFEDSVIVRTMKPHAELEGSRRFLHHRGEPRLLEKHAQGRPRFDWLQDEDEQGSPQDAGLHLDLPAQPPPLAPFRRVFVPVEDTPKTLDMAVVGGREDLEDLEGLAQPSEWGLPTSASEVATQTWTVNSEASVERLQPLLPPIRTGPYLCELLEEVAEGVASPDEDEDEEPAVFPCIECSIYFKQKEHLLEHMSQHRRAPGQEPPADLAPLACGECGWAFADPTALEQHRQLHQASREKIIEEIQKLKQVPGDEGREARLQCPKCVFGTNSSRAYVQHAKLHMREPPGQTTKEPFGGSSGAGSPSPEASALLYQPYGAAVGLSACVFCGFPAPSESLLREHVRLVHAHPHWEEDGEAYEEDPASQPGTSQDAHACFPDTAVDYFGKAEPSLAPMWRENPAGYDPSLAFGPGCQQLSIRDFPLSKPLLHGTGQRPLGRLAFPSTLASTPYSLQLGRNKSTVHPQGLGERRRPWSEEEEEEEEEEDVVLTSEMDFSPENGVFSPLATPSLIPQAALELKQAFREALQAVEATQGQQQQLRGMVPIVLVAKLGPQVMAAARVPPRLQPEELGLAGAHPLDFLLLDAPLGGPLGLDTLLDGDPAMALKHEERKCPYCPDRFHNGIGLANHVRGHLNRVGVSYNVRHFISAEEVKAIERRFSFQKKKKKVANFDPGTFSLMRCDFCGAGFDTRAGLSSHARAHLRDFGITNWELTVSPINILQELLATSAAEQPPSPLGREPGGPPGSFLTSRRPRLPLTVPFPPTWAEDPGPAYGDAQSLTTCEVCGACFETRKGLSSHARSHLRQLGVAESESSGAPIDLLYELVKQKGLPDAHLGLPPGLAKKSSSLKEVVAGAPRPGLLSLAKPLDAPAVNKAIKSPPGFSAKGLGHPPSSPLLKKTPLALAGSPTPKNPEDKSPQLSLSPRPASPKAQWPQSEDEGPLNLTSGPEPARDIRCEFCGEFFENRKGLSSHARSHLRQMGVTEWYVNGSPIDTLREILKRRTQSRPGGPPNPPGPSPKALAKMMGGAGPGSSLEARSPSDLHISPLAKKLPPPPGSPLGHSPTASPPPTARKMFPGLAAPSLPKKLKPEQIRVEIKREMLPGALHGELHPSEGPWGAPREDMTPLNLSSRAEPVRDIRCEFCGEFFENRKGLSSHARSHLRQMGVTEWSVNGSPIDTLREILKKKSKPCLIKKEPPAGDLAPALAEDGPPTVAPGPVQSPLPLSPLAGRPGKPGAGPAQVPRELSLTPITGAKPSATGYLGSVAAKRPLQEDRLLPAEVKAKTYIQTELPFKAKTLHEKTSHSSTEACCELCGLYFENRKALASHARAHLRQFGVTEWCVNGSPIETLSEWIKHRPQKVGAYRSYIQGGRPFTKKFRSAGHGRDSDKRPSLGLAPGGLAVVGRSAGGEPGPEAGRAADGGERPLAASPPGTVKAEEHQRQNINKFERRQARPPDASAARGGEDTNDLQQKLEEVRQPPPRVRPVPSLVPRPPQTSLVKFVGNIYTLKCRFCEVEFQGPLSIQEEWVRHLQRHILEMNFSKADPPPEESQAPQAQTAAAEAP
T1 sequence (Q96SW2 whole entry, the tested form may be a part): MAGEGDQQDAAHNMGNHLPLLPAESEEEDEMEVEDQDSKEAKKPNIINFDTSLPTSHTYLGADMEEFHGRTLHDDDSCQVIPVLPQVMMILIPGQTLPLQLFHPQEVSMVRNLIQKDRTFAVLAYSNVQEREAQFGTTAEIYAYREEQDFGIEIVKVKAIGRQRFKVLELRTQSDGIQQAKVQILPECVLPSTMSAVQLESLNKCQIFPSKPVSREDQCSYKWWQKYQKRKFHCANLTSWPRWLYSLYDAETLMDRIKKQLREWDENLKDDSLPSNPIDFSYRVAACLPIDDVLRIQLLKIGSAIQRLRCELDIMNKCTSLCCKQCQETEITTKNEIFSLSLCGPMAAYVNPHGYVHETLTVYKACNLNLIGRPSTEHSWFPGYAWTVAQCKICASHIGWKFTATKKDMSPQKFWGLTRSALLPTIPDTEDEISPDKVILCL
T1 sequence (Q16531 whole entry partner, the tested form may be a part): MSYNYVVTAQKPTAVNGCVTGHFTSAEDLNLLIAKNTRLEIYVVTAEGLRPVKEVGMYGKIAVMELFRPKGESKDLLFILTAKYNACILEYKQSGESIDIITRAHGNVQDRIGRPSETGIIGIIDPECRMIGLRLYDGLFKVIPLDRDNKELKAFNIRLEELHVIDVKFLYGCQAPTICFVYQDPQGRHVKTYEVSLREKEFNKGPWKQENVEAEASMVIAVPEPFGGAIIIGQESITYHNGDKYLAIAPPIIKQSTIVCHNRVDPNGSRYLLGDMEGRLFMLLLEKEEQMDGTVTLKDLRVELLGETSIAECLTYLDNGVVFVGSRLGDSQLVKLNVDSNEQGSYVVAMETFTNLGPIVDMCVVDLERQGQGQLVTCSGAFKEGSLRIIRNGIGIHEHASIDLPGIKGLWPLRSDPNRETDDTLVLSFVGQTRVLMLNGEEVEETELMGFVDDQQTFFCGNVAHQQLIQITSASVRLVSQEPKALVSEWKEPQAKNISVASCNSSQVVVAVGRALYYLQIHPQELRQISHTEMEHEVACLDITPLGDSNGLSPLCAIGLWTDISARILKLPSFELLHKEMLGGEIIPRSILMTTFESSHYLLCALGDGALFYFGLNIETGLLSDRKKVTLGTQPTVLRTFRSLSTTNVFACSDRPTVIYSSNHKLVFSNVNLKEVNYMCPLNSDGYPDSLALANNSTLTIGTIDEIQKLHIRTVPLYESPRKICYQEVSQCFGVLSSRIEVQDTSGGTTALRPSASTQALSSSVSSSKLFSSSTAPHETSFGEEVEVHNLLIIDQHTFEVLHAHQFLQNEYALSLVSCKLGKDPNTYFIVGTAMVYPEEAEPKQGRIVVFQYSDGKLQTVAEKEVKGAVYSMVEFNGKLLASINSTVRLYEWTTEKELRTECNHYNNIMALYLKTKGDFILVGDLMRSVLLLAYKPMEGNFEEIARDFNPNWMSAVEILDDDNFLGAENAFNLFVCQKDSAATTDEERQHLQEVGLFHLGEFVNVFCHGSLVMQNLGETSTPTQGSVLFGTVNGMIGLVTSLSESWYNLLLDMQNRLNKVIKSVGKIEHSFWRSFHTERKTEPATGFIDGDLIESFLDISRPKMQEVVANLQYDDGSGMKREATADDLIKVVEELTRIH

| SMILES | Dmax at 25 µM [%] | remaining activity at 25 µM [%] | DC50 [nM] | Dmax [%] | remaining activity [%] |
| --- | --- | --- | --- | --- | --- |
| C[C@H]1C[C@H](Cc2ccn3ncc(N4CCC(=O)NC4=O)c3c2)CCN1S(=O)(=O)N1CCCC1 [Example 291, 1-(5-(((2S,4R)-2-methyl-1-(pyrrolidin-1-ylsulfonyl)piperidin-4-yl)methyl)pyrazolo[1,5-a]pyridin-3-yl)dihydropyrimidine-2,4(1H,3H)-dione] | 83 | 17 | 15 | – | – |
| Cn1nccc1CN1CCN(Cc2ccn3ncc(N4CCC(=O)NC4=O)c3c2)CC1 [Example 195, 1-(5-((4-((1-methyl-1H-pyrazol-5-yl)methyl)piperazin-1-yl)methyl)pyrazolo[1,5-a]pyridin-3-yl)dihydropyrimidine-2,4(1H,3H)-dione] | 48 | 52 | 2050 | – | – |
| C[C@H]1CN(Cc2ccn3ncc(N4CCC(=O)NC4=O)c3c2)CCN1C1CCOCC1 [Example 330] | 82 | 18 | 41 | – | – |
| O=C1CCN(c2cnn3ccc(CC4CCN(S(=O)(=O)c5ccccc5)CC4)cc23)C(=O)N1 [Example 91] | 74 | 26 | 150 | – | – |
| CC(C)CN1CCN(Cc2ccn3ncc(N4CCC(=O)NC4=O)c3c2)C[C@@H]1C(C)C [Example 229, (S)-1-(5-((4-isobutyl-3-isopropylpiperazin-1-yl)methyl)pyrazolo[1,5-a]pyridin-3-yl)dihydropyrimidine-2,4(1H,3H)-dione] | 0 | 100 | > 25000 | – | – |
| CC(C)(CN1CCC(Cc2ccn3ncc(N4CCC(=O)NC4=O)c3c2)CC1)C(F)(F)F [Example 62, 1-(5-((1-(3,3,3-trifluoro-2,2-dimethylpropyl)piperidin-4-yl)methyl)pyrazolo[1,5-a]pyridin-3-yl)dihydropyrimidine-2,4(1H,3H)-dione] | 73 | 27 | 49 | – | – |
| C[C@H]1CN(CC2CC(F)(F)C2)CCN1Cc1ccn2ncc(N3CCC(=O)NC3=O)c2c1 [Example 226, (S)-1-(5-((4-((3,3-difluorocyclobutyl)methyl)-2-methylpiperazin-1-yl)methyl)pyrazolo[1,5-a]pyridin-3-yl)dihydropyrimidine-2,4(1H,3H)-dione] | 45 | 55 | 1230 | – | – |
| O=C1CCN(c2cnn3ccc(CC4CN(CC5CCCCC5)C4)cc23)C(=O)N1 [Example 135, 1-(5-((1-(cyclohexylmethyl)azetidin-3-yl)methyl)pyrazolo[1,5-a]pyridin-3-yl)dihydropyrimidine-2,4(1H,3H)-dione] | 26 | 74 | 2100 | – | – |
| C[C@H]1CN(Cc2ccn3ncc(N4CCC(=O)NC4=O)c3c2)CCN1CC1CCCCCC1 [Example 198, (S)-1-(5-((4-(cycloheptylmethyl)-3-methylpiperazin-1-yl)methyl)pyrazolo[1,5-a]pyridin-3-yl)dihydropyrimidine-2,4(1H,3H)-dione] | 87 | 13 | 9 | – | – |
| O=C1CCN(c2cnn3ccc(CN4CCN(CC(F)(F)F)CC4)cc23)C(=O)N1 [Example 171] | 52 | 48 | 981 | – | – |
| O=C1CCN(c2cnn3ccc(CN4C[C@@H]5C[C@H]4CN5CC4CCCCC4)cc23)C(=O)N1 [Example 236, 1-(5-(((1S,4S)-5-(cyclohexylmethyl)-2,5-diazabicyclo[2.2.1]heptan-2-yl)methyl)pyrazolo[1,5-a]pyridin-3-yl)dihydropyrimidine-2,4(1H,3H)-dione] | 5 | 95 | 3200 | – | – |
| O=C1CCN(c2cnn3ccc(CC4CCN(Cc5cccc(F)c5F)CC4)cc23)C(=O)N1 [Example 53, 1-(5-((1-(2,3-difluorobenzyl)piperidin-4-yl)methyl)pyrazolo[1,5-a]pyridin-3-yl)dihydropyrimidine-2,4(1H,3H)-dione] | 65 | 35 | 37 | – | – |
| O=C1CCN(c2cnn3ccc(CN4CCN5C(=O)COC[C@H]5C4)cc23)C(=O)N1 [Example 314, (R)-1-(5-((4-oxohexahydropyrazino[2,1-c][1,4]oxazin-8(1H)-yl)methyl)pyrazolo[1,5-a]pyridin-3-yl)dihydropyrimidine-2,4(1H,3H)-dione] | 34 | 66 | 2560 | – | – |
| O=C1CCN(c2cnn3ccc(CN4CCN(CC5CC5)CC4)cc23)C(=O)N1 [Example 189, 1-(5-((4-(cyclopropylmethyl)piperazin-1-yl)methyl)pyrazolo[1,5-a]pyridin-3-yl)dihydropyrimidine-2,4(1H,3H)-dione] | 71 | 29 | 191 | – | – |
| C[C@H]1C[C@H](Cc2ccn3ncc(N4CCC(=O)NC4=O)c3c2)CCN1CC(F)(F)C(F)F [Example 273, 1-(5-(((2S,4R)-2-methyl-1-(2,2,3,3-tetrafluoropropyl)piperidin-4-yl)methyl)pyrazolo[1,5-a]pyridin-3-yl)dihydropyrimidine-2,4(1H,3H)-dione] | – | – | 40 | 78 | 22 |
| O=C1CCN(c2cnn3ccc(CN4CCN(CC5CCCCC5)[C@@H](C(F)F)C4)cc23)C(=O)N1 [Example 246, (R)-1-(5-((4-(cyclohexylmethyl)-3-(difluoromethyl)piperazin-1-yl)methyl)pyrazolo[1,5-a]pyridin-3-yl)dihydropyrimidine-2,4(1H,3H)-dione] | 0 | 100 | > 25000 | – | – |
| O=C1CCN(c2cnn3ccc(CC4CCN(C(=O)C5(C(F)(F)F)CC5)CC4)cc23)C(=O)N1 [Example 100] | 42 | 58 | 755 | – | – |
| CC(C)C(=O)N1CCC(Cc2ccn3ncc(N4CCC(=O)NC4=O)c3c2)CC1 [Example 98, 1-(5-((1-isobutyrylpiperidin-4-yl)methyl)pyrazolo[1,5-a]pyridin-3-yl)dihydropyrimidine-2,4(1H,3H)-dione] | – | – | 587 | 59 | 41 |
| C[C@H]1CN(Cc2ccn3ncc(N4CCC(=O)NC4=O)c3c2)CCN1CC1CCCO1 (stereo partly drawn) [Example 209] | 74 | 26 | 380 | – | – |
| O=C1CCN(c2cnn3ccc(CC4CCN(CC(CO)CO)CC4)cc23)C(=O)N1 [Example 121, 1-(5-((1-(3-hydroxy-2-(hydroxymethyl)propyl)piperidin-4-yl)methyl)pyrazolo[1,5-a]pyridin-3-yl)dihydropyrimidine-2,4(1H,3H)-dione] | 50 | 50 | > 25000 | – | – |
| O=C1CCN(c2cnn3ccc(CC4CCN(CC5(F)CCCCC5)CC4)cc23)C(=O)N1 [Example 107, 1-(5-((1-((1-fluorocyclohexyl)methyl)piperidin-4-yl)methyl)pyrazolo[1,5-a]pyridin-3-yl)dihydropyrimidine-2,4(1H,3H)-dione] | 78 | 22 | 31 | – | – |
| C[C@H]1C[C@H](Cc2ccn3ncc(N4CCC(=O)NC4=O)c3c2)CCN1Cc1cccnc1 [Example 150] | 90 | 10 | 0.3 | – | – |
| O=C1CCN(c2cnn3ccc(CC4CCN(S(=O)(=O)C5CC5)CC4)cc23)C(=O)N1 [Example 89] | 77 | 23 | 285 | – | – |
| O=C1CCN(c2cnn3ccc(CC4CCN(Cc5ccc(F)cc5)CC4)cc23)C(=O)N1 [Example 23, 1-(5-((1-(4-fluorobenzyl)piperidin-4-yl)methyl)pyrazolo[1,5-a]pyridin-3-yl)dihydropyrimidine-2,4(1H,3H)-dione] | 77 | 23 | 144 | – | – |
| CC(C)S(=O)(=O)N1CCN(Cc2ccn3ncc(N4CCC(=O)NC4=O)c3c2)CC1 [Example 185, 1-(5-((4-(isopropylsulfonyl)piperazin-1-yl)methyl)pyrazolo[1,5-a]pyridin-3-yl)dihydropyrimidine-2,4(1H,3H)-dione] | 47 | 53 | 582 | – | – |
| O=C1CCN(c2cnn3ccc(CC4(F)CCN(CC5CCC5)CC4)cc23)C(=O)N1 [Example 125, 1-(5-((1-(cyclobutylmethyl)-4-fluoropiperidin-4-yl)methyl)pyrazolo[1,5-a]pyridin-3-yl)dihydropyrimidine-2,4(1H,3H)-dione] | 55 | 45 | 596 | – | – |
| CC(C)CN1CC[C@@H](Cc2ccn3ncc(-n4ccc(=O)[nH]c4=O)c3c2)C[C@@H]1C [Example 346, 1-(5-(((2S,4R)-1-isobutyl-2-methylpiperidin-4-yl)methyl)pyrazolo[1,5-a]pyridin-3-yl)pyrimidine-2,4(1H,3H)-dione] | 87 | 13 | 108 | – | – |
| C[C@H]1C[C@H](Cc2ccn3ncc(N4CCC(=O)NC4=O)c3c2)CCN1CC1CCO1 (stereo partly drawn) [Example 277, 1-(5-(((2S,4R)-2-methyl-1-(oxetan-2-ylmethyl)piperidin-4-yl)methyl)pyrazolo[1,5-a]pyridin-3-yl)dihydropyrimidine-2,4(1H,3H)-dione] | 76 | 24 | 203 | – | – |
